Measurements taken from patent publication US20250107533A1, “FUNGICIDAL COMPOSITIONS” (SYNGENTA CROP PROTECTION AG, priority 2021, published 2025).

Test system: Phakopsora pachyrhizi
Assay: Soybean leaf disk test against Asian soybean rust (Example 1)
Assay type: in vivo
Conditions: soybean leaf disks, assessed 12 days after inoculation; for inhibition at 0.25 ppm / inhibition at 0.74 ppm / inhibition at 2.22 ppm: Phakopsora pachyrhizi, foliar, 288 h, component (B) alone; for (A) inhibition: Aureobasidin A alone
Protocol: The compositions according to the invention are tested for their biological (fungicidal) activity using application rates wherein the component (A) is applied at a rate of from 25 g a.i./ha to 500 g a.i./ha in association with 10 g a.i./ha to 500 g a.i./ha of component (B).
The compositions according to the invention are tested for their biological (fungicidal) activity as dimethylsulfoxide (DMSO) solutions the protocols as set forth in the examples below. A standard description of the liquid culture tests is provided in Example 1.
Compounds to be tested were prepared as DMSO solutions (max. 10 mg/mL) which were diluted to the appropriate concentration with 0.025% TWEEN 20® surfactant just before spraying. Soybean leaf disks were placed on agar in multiwell plates (24-well format) and sprayed with test solutions. After 24 hours drying, the leaf disks were inoculated with a spore suspension of the fungus. The disease severity of a compound or mixture was assessed 12 days after inoculation and described as percent activity relative to the untreated check leaf disks.

Compound | inhibition at 0.25 ppm [%] | inhibition at 0.74 ppm [%] | inhibition at 2.22 ppm [%] | (A) inhibition (2.5 ppm) [%] | (A) inhibition (7.4 ppm) [%]
CCN(Cc1ccc(-c2noc(C(F)(F)F)n2)cc1)C(=O)C(C)C [B.04, N-ethyl-2-methyl-N-[[4-[5-(trifluoromethyl)-1,2,4-oxadiazol-3-yl]phenyl]methyl]propanamide] | 0 | 0 | 35 | – | –
CCNC(=O)N(Cc1ccc(-c2noc(C(F)(F)F)n2)cc1)OC [B.07, 3-ethyl-1-methoxy-1-[[4-[5-(trifluoromethyl)-1,2,4-oxadiazol-3-yl]phenyl]methyl]urea] | 0 | 35 | – | – | –
COC(C)C(=O)N(Cc1ccc(-c2noc(C(F)(F)F)n2)cc1)OC (stereo not shown) [B.03, N,2-dimethoxy-N-[[4-[5-(trifluoromethyl)-1,2,4-oxadiazol-3-yl]phenyl]methyl]propanamide] | – | 10 | 35 | – | –
CON(Cc1ccc(-c2noc(C(F)(F)F)n2)cc1)C(=O)C1CC1 [B.02, N-methoxy-N-[[4-[5-(trifluoromethyl)-1,2,4-oxadiazol-3-yl]phenyl]methyl]cyclopropanecarboxamide] | – | 10 | 35 | – | –
CONC(=O)N(Cc1ccc(-c2noc(C(F)(F)F)n2)cc1)OC [B.06, 1,3-dimethoxy-1-[[4-[5-(trifluoromethyl)-1,2,4-oxadiazol-3-yl]phenyl]methyl]urea] | 0 | 0 | – | – | –
CCC(=O)NCc1ccc(-c2noc(C(F)(F)F)n2)cc1 [B.08, N-[[4-[5-(trifluoromethyl)-1,2,4-oxadiazol-3-yl]phenyl]methyl]propanamide] | 0 | 20 | 60 | – | –
CCOC(=O)c1cnn(Cc2ccc(-c3noc(C(F)(F)F)n3)cc2)c1 [B.01, ethyl 1-[[4-[5-(trifluoromethyl)-1,2,4-oxadiazol-3-yl]phenyl]methyl]pyrazole-4-carboxylate] | – | 50 | – | – | –
CNC(=O)N(Cc1ccc(-c2noc(C(F)(F)F)n2)cc1)OC [B.05, 1-methoxy-3-methyl-1-[[4-[5-(trifluoromethyl)-1,2,4-oxadiazol-3-yl]phenyl]methyl]urea] | 0 | 50 | – | – | –
Aureobasidin A | – | – | – | 62 | 88
